Experimental data: patent US20230019491A1, “PYRIMIDINE TBK/IKKe INHIBITOR COMPOUNDS AND USES THEREOF” (Merck Patent GmbH, priority 2017, published 2023)
Like-named read-outs stand apart in the source and are kept apart here.

Legend:
[1] = biological target: T1, TBK1 (Homo sapiens, UniProt Q9UHD2); assay: TBK biochemical assay
T1 sequence (Q9UHD2 1-729): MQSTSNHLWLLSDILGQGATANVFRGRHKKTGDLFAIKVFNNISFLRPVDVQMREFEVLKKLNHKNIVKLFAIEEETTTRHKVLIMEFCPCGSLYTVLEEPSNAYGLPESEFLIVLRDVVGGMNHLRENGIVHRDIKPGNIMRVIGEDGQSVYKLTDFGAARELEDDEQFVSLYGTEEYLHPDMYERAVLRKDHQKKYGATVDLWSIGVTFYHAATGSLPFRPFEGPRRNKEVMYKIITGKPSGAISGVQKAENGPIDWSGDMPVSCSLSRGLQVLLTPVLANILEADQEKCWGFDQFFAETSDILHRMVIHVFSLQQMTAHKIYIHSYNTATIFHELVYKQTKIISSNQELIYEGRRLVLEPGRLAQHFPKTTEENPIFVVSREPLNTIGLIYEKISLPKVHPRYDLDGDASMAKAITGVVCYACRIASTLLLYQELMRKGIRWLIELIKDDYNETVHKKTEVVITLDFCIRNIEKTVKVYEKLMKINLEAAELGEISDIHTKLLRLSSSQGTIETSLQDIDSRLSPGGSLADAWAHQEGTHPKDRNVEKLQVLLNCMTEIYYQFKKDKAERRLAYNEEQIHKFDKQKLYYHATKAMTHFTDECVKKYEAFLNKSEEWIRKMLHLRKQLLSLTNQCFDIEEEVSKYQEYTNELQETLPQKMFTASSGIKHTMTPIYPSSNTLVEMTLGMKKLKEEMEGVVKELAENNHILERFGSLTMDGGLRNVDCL
In short: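 Read-out was a Caliper LabChip mobility-shift assay, run after a 90-min, 25 °C reaction of TBK1 with substrate and compounds, quenched with stop buffer. Control wells received staurosporine at 10 uM final.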

[2] = biological target: T2, IKKε (Homo sapiens, UniProt Q14164); assay: IKKε biochemical assay; details: 30 uM top concentration, 90 min at 25° C., LabChip EZ Reader II
T2 sequence (Q14164 1-716): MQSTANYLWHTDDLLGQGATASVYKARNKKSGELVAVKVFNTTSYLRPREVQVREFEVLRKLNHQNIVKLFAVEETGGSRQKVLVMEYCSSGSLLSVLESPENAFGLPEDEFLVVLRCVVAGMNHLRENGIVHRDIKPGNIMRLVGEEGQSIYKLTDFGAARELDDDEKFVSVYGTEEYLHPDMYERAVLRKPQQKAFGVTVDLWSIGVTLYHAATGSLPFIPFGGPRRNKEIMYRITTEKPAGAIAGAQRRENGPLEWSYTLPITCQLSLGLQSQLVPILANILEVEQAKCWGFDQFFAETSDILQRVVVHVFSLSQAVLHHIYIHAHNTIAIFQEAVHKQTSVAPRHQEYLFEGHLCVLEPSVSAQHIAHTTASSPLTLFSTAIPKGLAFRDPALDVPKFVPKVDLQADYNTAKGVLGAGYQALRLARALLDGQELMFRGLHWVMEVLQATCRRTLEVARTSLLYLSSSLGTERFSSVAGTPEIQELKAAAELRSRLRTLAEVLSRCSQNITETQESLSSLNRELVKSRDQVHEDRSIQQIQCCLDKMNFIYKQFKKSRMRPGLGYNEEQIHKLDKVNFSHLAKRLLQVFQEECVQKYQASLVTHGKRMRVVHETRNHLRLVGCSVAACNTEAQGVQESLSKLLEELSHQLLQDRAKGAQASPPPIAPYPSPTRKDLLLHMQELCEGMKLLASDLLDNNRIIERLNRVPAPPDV
In short: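 Mobility-shift LabChip read-out followed a 90 min, 25° C. reaction of IKKε with substrate and test compound, with DMSO held at 1% final. Reactions were ended with stop buffer. Wells with 10 uM final staurosporine defined complete inhibition, and DMSO-only wells the uninhibited level.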

[3] = 10 point 1:4 dose response, 30 uM top concentration, 90 min at 25° C., LabChip EZ Reader II, read-out: TBK1_IC50
[4] = 10 point 1:4 dose response, read-out: IKKε_IC50

Row | SMILES | IC50 [1, 3] | IC50 [2, 4] | IC50 [1] | IC50 ([2]; IKKε_IC50, 10 point 1:4 dose response)
1 | COc1nc(Nc2nccc(-c3ccc(OC4CCNCC4)c(C#N)c3)n2)ccc1N1CCN(C)CC1 [Example 89, 5-(2-[[6-methoxy-5-(4-methylpiperazin-1-yl)pyridin-2-yl]amino]pyrimidin-4-yl)-2-(piperidin-4-yloxy)benzonitrile] | < 100 nM | < 100 nM |  | 
2 | COc1nc(Nc2nccc(-c3ccc(OC4CCOCC4)c(C#N)c3)n2)ccc1C(=O)N1CC2CC(C1)O2 [Example 7, 5-(2-[[6-methoxy-5-([6-oxa-3-azabicyclo[3.1.1]heptan-3-yl]carbonyl)pyridin-2-yl]amino]pyrimidin-4-yl)-2-(oxan-4-yloxy)benzonitrile] |  |  | < 100 nM | < 100 nM
3 | C[C@H](O)C(=O)N1CCC(Oc2ccc(-c3ccnc(Nc4cccc(C5CCN(C6COC6)CC5)c4)n3)cc2C#N)C(F)(F)C1 (stereo partly drawn) [Example 224, 2-[3,3-Difluoro-1-((S)-2-hydroxy-propionyl)-piperidin-4-yloxy]-5-{2-[3-(1-oxetan-3-yl-piperidin-4-yl)-phenylamino]-pyrimidin-4-yl}-benzonitrile] | < 100 nM | < 100 nM |  | 
4 | C[C@@H](O)C(=O)N1CCC(Oc2ccc(-c3ccnc(Nc4ccc(N5CCN(C6COC6)CC5)cc4)n3)cc2C#N)C(F)(F)C1 (stereo partly drawn) [Example 141, 2-([3,3-difluoro-1-[(2R)-2-hydroxypropanoyl]piperidin-4-yl]oxy)-5-[2-([4-[4-(oxetan-3-yl)piperazin-1-yl]phenyl]amino)pyrimidin-4-yl]benzonitrile] | < 100 nM | < 100 nM |  | 
5 | COc1nc(Nc2nccc(-c3ccc(OC4CCN(C(=O)[C@@H](C)O)CC4(F)F)c(C#N)c3)n2)ccc1N1CCN(C2COC2)[C@H](C)C1 (stereo partly drawn) [Example 126, 2-[3,3-Difluoro-1-((R)-2-hydroxy-propionyl)-piperidin-4-yloxy]-5-{2-[6-methoxy-5-((R)-3-methyl-4-oxetan-3-yl-piperazin-1-yl)-pyridin-2-ylamino]-pyrimidin-4-yl}-benzonitrile] | < 100 nM | < 100 nM |  | 
6 | COc1nc(Nc2nccc(-c3ccc(OC4CCN(C(=O)[C@H](C)O)CC4(F)F)c(C#N)c3)n2)ccc1N1CCN(C)C[C@@H]1C (stereo partly drawn) [Example 113, 2-[3,3-Difluoro-1-((S)-2-hydroxy-propionyl)-piperidin-4-yloxy]-5-{2-[5-((S)-2,4-dimethyl-piperazin-1-yl)-6-methoxy-pyridin-2-ylamino]-pyrimidin-4-yl}-benzonitrile] | < 100 nM | < 100 nM |  | 
7 | C[C@H](O)C(=O)N1CCC(Oc2ccc(-c3ccnc(Nc4ccc(N5CCN(C6COC6)CC5)cn4)n3)cc2C#N)C(F)(F)C1 (stereo partly drawn) [Example 245, 2-([33-difluoro-1-[(2S)-2-hydroxypropanoyl]piperidin-4-yl]oxy)-5-[2-([5-[4-(oxetan-3-yl)piperazin-1-yl]pyridin-2-yl]amino)pyrimidin-4-yl]benzonitrile] | < 100 nM | < 100 nM |  | 
8 | CC(O)C(=O)N1CCC(Oc2ccc(-c3ccnc(Nc4ccc(C5CCN(C)CC5)cc4)n3)cc2C#N)C(F)(F)C1 (stereo not drawn) [Example 149, 2-[[3,3-difluoro-1-(2-hydroxypropanoyl)piperidin-4-yl]oxy]-5-(2-[[4-(1-methylpiperidin-4-yl)phenyl]amino]pyrimidin-4-yl)benzonitrile] | < 100 nM | < 100 nM |  | 
9 | COc1nc(Nc2nccc(-c3ccc(OC4COC4)c(C#N)c3)n2)ccc1N1CCN(C2COC2)CC1 [Example 160, 5-[2-([6-methoxy-5-[4-(oxetan-3-yl)piperazin-1-yl]pyridin-2-yl]amino)pyrimidin-4-yl]-2-(oxetan-3-yloxy)benzonitrile] | 100 to 1000 nM | 100 to 1000 nM |  | 
10 | CC(O)C(=O)N1CC[C@H](Oc2ccc(-c3nc(Nc4ccc(N5CCN(C6COC6)CC5)cc4)ncc3F)cc2C#N)[C@H](F)C1 (stereo partly drawn) [Example 295, 2-{[(3R,4S)-3-fluoro-1-(2-hydroxypropanoyl)piperidin-4-yl]oxy}-5-[5-fluoro-2-({4-[4-(oxetan-3-yl)piperazin-1-yl]phenyl}amino)pyrimidin-4-yl]benzonitrile] | < 100 nM | < 100 nM |  | 
11 | COc1nc(Nc2nccc(-c3ccc(OC4CCOCC4)c(C#N)n3)n2)ccc1C(=O)N1CCN(C)CC1 [Example 31, 6-[2-([6-methoxy-5-[(4-methylpiperazin-1-yl)carbonyl]pyridin-2-yl]amino)pyrimidin-4-yl]-3-(oxan-4-yloxy)pyridine-2-carbonitrile] | < 100 nM | < 100 nM |  | 
12 | COc1nc(Nc2nccc(-c3ccc(OC4CCN(C(=O)CO)CC4)c(C#N)c3)n2)ccc1C(=O)N(C)C [Example 73, 6-[[4-(3-cyano-4-[[1-(2-hydroxyacetyl)piperidin-4-yl]oxy]phenyl)pyrimidin-2-yl]amino]-2-methoxy-N,N-dimethylpyridine-3-carboxamide] | < 100 nM | < 100 nM |  | 
13 | C[C@H](O)C(=O)N1CCC(Oc2ccc(-c3ccnc(Nc4ccc(N5CCN(C6COC6)CC5)cc4)n3)cc2C#N)C(F)(F)C1 (stereo partly drawn) [Example 138, 2-([3,3-difluoro-1-[(2S)-2-hydroxypropanoyl]piperidin-4-yl]oxy)-5-[2-([4-[4-(oxetan-3-yl)piperazin-1-yl]phenyl]amino)pyrimidin-4-yl]benzonitrile] | < 100 nM | < 100 nM |  | 
14 | COc1cc(Nc2nccc(-c3ccc(OC4CCN(C(=O)[C@H](C)O)CC4(F)F)c(C#N)c3)n2)ccc1C1CCN(C2COC2)CC1 (stereo partly drawn) [Example 311, 2-([3,3-difluoro-1-[(2S)-2-hydroxypropanoyl]piperidin-4-yl]oxy)-5-[2-([3-methoxy-4-[1-(oxetan-3-yl)piperidin-4-yl]phenyl]amino)pyrimidin-4-yl]benzonitrile] | < 100 nM | < 100 nM |  | 
15 | COc1nc(Nc2ncc(F)c(-c3ccc(O[C@H]4CCN(C(=O)[C@H](C)O)C[C@H]4F)c(C#N)c3)n2)ccc1N1CCN(C2COC2)CC1 [Example 298, 2-({3-fluoro-1-[(2S)-2-hydroxypropanoyl]piperidin-4-yl}oxy)-5-[5-fluoro-2-({6-methoxy-5-[4-(oxetan-3-yl)piperazin-1-yl]pyridin-2-yl}amino)pyrimidin-4-yl]benzonitrile] | < 100 nM | < 100 nM |  | 
16 | COc1nc(Nc2ncc(F)c(-c3ccc(OC4CCN(C(=O)[C@H](C)O)CC4(F)F)c(C#N)c3)n2)ccc1N1CCN(C2COC2)CC1 (stereo partly drawn) [Example 292, 2-({3,3-difluoro-1-[(2S)-2-hydroxypropanoyl]piperidin-4-yl}oxy)-5-[5-fluoro-2-({6-methoxy-5-[4-(oxetan-3-yl)piperazin-1-yl]pyridin-2-yl}amino)pyrimidin-4-yl]benzonitrile] | < 100 nM | < 100 nM |  | 
17 | COc1cc(N2CCN(C3COC3)CC2)cnc1Nc1nccc(-c2ccc(OC3CCN(C(=O)[C@H](C)O)CC3(F)F)c(C#N)c2)n1 (stereo partly drawn) [Example 309, 2-([3,3-difluoro-1-[(2S)-2-hydroxypropanoyl]piperidin-4-yl]oxy)-5-[2-([3-methoxy-5-[4-(oxetan-3-yl)piperazin-1-yl]pyridin-2-yl]amino)pyrimidin-4-yl]benzonitrile] | 100 to 1000 nM | 100 to 1000 nM |  | 
18 | COc1cc(N2CCN(C3COC3)CC2)ccc1Nc1nccc(-c2ccc(OC3CCN(C(=O)[C@H](C)O)CC3(F)F)c(C#N)c2)n1 (stereo partly drawn) [Example 228, 2-([33-difluoro-1-[(2S)-2-hydroxypropanoyl]piperidin-4-yl]oxy)-5-[2-([2-methoxy-4-[4-(oxetan-3-yl)piperazin-1-yl]phenyl]amino)pyrimidin-4-yl]benzonitrile] | < 100 nM | < 100 nM |  | 
